Here are results for four compounds from article PMC2790023 (Journal of medicinal chemistry, 2009).

Data set [1] deals with VHR, PTP1B, CD45, HePTP, Shp2, and YopH. The format is biochemical.
Another data set has as its target VHR (Homo sapiens, UniProt P51452). Nature of the data set: Ki determination, Michaelis-Menten kinetics with pNPP. The format is biochemical.
A further data set concerns CaSki cells. Nature of the data set: AnnexinV/PI flow cytometry apoptosis assay. The note with it: 20 μM, 24 h. In general terms: Flow cytometry measures light scatter and fluorescence of single cells or particles in a stream.
Data set [2] relates to HeLa cells. Nature of the data set: AnnexinV/PI flow cytometry apoptosis assay. The note with it: 20 μM, 24 h.
Data set [3] relates to HeLa cells. Nature of the data set: Cell numbers. Particulars: 20 μM, 24 h. The data set is classed as cell-based.

Entries after “also recorded” stand apart in the source; their conditions may differ.

Sequence of VHR (P51452 whole entry): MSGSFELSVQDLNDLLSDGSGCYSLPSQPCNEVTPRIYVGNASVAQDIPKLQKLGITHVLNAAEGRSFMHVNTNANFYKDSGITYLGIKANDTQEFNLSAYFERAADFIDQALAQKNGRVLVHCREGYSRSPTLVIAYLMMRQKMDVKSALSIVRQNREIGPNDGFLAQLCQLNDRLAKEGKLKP

As a reminder, the Ki is the dissociation constant of the complex between target and ligand, obtained from inhibition or displacement. A high value points to weaker binding. On to `O=C1/C(=C/C=C/c2ccccc2)SC(=S)N1CCS(=O)(=O)O` [compound 1, 2-((Z)-4-oxo-5-((E)-3-phenylallylidene)-2-thioxothiazolidin-3-yl)ethane-sulfonic acid], for which, in data set [1], the “Selectivity for VHR in counter screen” value is listed as “selectively inhibiting VHR; also recorded: selective for VHR”. Also, the “Inhibition pattern (Lineweaver-Burk plot)” value on VHR was “competitively inhibited VHR; also recorded: clear competitive inhibition pattern”. This compound returned a Ki at VHR (Ki, pNPP substrate) of 809 nM.
As for `O=C1/C(=C/c2cn(-c3ccccc3)nc2-c2ccc(OCc3ccccc3F)cc2)SC(=S)N1CCS(=O)(=O)O` [SA3], the “Percentage of AnnexinV/PI negative cells versus vehicle” value with CaSki cells and in the data set with HeLa cells [2] was “no difference” throughout. Further, the “HeLa cell numbers, percentage of the DMSO control” value with HeLa cells [3] was “less than 50%”.
On to `COc1ccc(OC)c2c1C(=O)c1ccccc1C2=O` [compound 8, 1,4-dimethoxyanthracene-9,10-dione], for which, in data set [1], the “Selectivity for VHR in counter screen” value is listed as “selectively inhibiting VHR; also recorded: selective for VHR”.
Regarding `O=C1/C(=C/c2cn(-c3ccccc3)nc2-c2ccc(OCc3ccccc3Cl)cc2)SC(=S)N1CCS(=O)(=O)O` [SA2], the “Percentage of AnnexinV/PI negative cells versus vehicle” value in the data set on CaSki cells and in the data set with HeLa cells [2] was “no difference” in each case.
